Data published in patent US11384379B2, “Method for producing a protein and disaccharide using a Talaromyces cellulolyticus” (AJINOMOTO CO., INC., priority 2017, dated 2022).

Assays:
[1] = test system: T. cellulolyticus strains F09pyr+ and F09Δgh1-2; assay: Halo assay for secretory cellulase by various beta-linked glucose oligosaccharides (CMC minimal medium, Congo Red); assay type: cell-based, Talaromyces cellulolyticus; settings: 30° C. for 36 hours
Method: The strains F09pyr+ and F09Δgh1-2 were each grown on the minimal medium containing glucose as the carbon source for 3 days. […] After the culture, a Congo Red solution obtained by mixing 50 mM sodium phosphate buffer (pH 7.0) and 2 mg/ml Congo Red (Nacalai Tesque) in a volume ratio of 10:1 was added to the plate so that the Congo Red solution covered the entire plate, and the plate was left to stand for 30 minutes at a room temperature. Then, the Congo Red solution on the plate was removed, and sodium phosphate buffer (50 mM, pH 7.0) was added to the plate so that the sodium phosphate buffer covered the entire plate. The plate was again left to stand for 30 minutes at a room temperature. Then, the sodium phosphate buffer on the plate was removed, the surface of the plate was dried lightly, and observation of halo was carried out.

[2] = test system: T. cellulolyticus strains Y-94, W363Frep, W449Frep, and C267Prep; assay: Halo assay of strains Y-94, W363Frep, W449Frep, C267Prep with or without gentiobiose; assay type: cell-based, Talaromyces cellulolyticus; settings: 1 mM gentiobiose in combination with W363F, W449F or C267P mutation in the gh1-2 gene; 5 days
Method: (§1) The strains Y-94, W363Frep, W449Frep, and C267Prep were each grown on the minimal medium containing CMC as the carbon source and on the minimal medium containing CMC as the carbon source and 1 mM gentiobiosefor 5 days according to the procedure described in Example (1-4). After the culture, a Congo Red solution obtained by mixing 50 mM sodium phosphate buffer (pH 7.0) and 2 mg/ml Congo Red (Nacalai Tesque) in a volume ratio of 10:1 was added to the plate so that the Congo Red solution covered the whole of the plate, and the plate was left to stand for 30 minutes at a room temperature. Then, the Congo Red solution on the plate was removed, and sodium phosphate buffer (50 mM, pH 7.0) was added to the plate so that the sodium phosphate buffer covered the whole of the plate. The plate was again left to stand for 30 minutes at a room temperature. Then, the sodium phosphate buffer on the plate was removed, the surface of the plate was dried lightly, and the diameter and width of the visualized halo were measured.

[3] = test system: T. cellulolyticus strains F09pyrF+, F09Δgh1-2, F09Δbgl3A, and F09Δgh1-2Δbgl3A; assay: Plate halo assay of double deficient strain of GH1-2 and BGL3A with or without gentiobiose; assay type: cell-based, Talaromyces cellulolyticus; settings: 1 mM gentiobiose in combination with double disruption of the gh1-2 gene and the bgl3A gene; 5 days
Method: as §1, with “F09pyrF+” for “Y-94, W363Frep, W449Frep,”, “F09Δgh1-2 constructed in Example (1-1), the strain F09Δbgl3A constructed in Example (5-1), and the strain F09Δgh1-2Δbgl3A constructed in Example (7-1)” for “C267Prep”

[4] = test system: T. cellulolyticus strain F09ΔcreA; assay: Cellulase production fed-batch culture using gentiobiose, filter paper degradation activity; assay type: cell-based, Talaromyces cellulolyticus; settings: carbon source other than glucose in the feed solution, compared with cellobiose; 72 hours
Method: The T. cellulolyticus strains F09ΔcreA and F09Δgh1-2ΔcreA were each inoculated into PD medium, and cultured at 30° C. One agar disk excised from around the edge of a formed colony was inoculated into 20 mL of a liquid culture medium containing 20 g/L glucose, 24 g/L KH2PO4, 5 g/L (NH4)2SO4, 2 g/L Urea, 1.2 g/L MgSO4-7H2O, 0.01 g/L ZnSO4-7H2O, 0.01 g/L MnSO4-5H2O, 0.01 g/L CuSO4-5H2O, 1 g/L Corn steep liquor (C4648, SIGMA), and 1 g/L Tween 80, and gyratory culture (220 rpm) was carried out at 30° C. for 5 days as a pre-culture. […]
The filter paper degradation activity (FPU/ml) of the obtained enzyme solutions was measured according to the following procedure, and the yield of the activity per carbon source was calculated on the basis of the consumption amount of sugar during the cultures by which the respective enzyme solutions were obtained.
To a 100-μl aliquot of a citrate buffer (50 mM, pH 5.0) containing a filter paper (Whatman No. 1, GE Healthcare) cut to 6 mm×10 mm, 50 μl of an appropriately diluted sample were added, and a reaction was carried out at 50° C. for 1 hour. […] Then, the absorbance at 540 nm of the supernatant was measured, and the value of the blank was subtracted therefrom, to calculate an increase in absorbance. […]

[5] = test system: HSA expressing strain derived from the T. cellulolyticus strain F09ΔyscB; settings: feeding solution Gentiobiose 80 g/L vs Cellobiose 80 g/L; 45 hours
Method: The HSA expressing strain derived from the T. cellulolyticus strain F09ΔyscB was inoculated into PD medium, and cultured at 30° C. One agar disk excised from around the edge of a formed colony was inoculated into 20 mL of a liquid culture medium containing 20 g/L glucose, 24 g/L KH2PO4, 5 g/L (NH4)2SO4, 2 g/L Urea, 1.2 g/L MgSO4-7H2O, 0.01 g/L ZnSO4-7H2O, 0.01 g/L MnSO4-5H2O, 0.01 g/L CuSO4-5H2O, 1 g/L Corn steep liquor (C4648, SIGMA), and 1 g/L Tween 80, and gyratory culture (220 rpm) was carried out at 30° C. for 5 days as a pre-culture. Then, 15 mL of the pre-culture broth was inoculated into 300 mL of a liquid culture medium containing 15 g/L glucose, 12 g/L KH2PO4, 10 g/L (NH4)2SO4, 1.2 g/L MgSO4-7H2O, 0.01 g/L ZnSO4-7H2O, 0.01 g/L MnSO4-5H2O, 0.01 g/L CuSO4-5H2O, 5 g/L Corn steep liquor, 1 g/L Tween 80, and 0.5 mL/L DISFOAM GD (NOF CORPORATION) in a jar fermenter, and fed-batch culture was carried out for 45 hours at a culture temperature of 30° C. and an aeration volume of 1/2 vvm, while controlling the dissolved oxygen concentration to be 5% or higher of the saturated oxygen concentration by stirring and controlling the pH to be 5 with using ammonia gas. […]
HSA was quantified by ELISA using Albumin ELISA Quantitation Kit, Human (Bethyl Laboratories, inc.).

[6] = Generation of gentiobiose from cellulosic substrate/glucose by culture supernatant containing BGL3A; assay type: biochemical; settings: enzyme solution, no cellulosic substrate added, glucose 0-14.4 wt %, 50° C. for 24 hours
Method: (§2) The strains F09Δbgl3A and F09pyr+ were each inoculated into a 1/2 PDA plate, and cultured at 30° C. for 3 days. […] Sampling was appropriately carried out, cells were removed using a 0.22 μm syringe filter, and the obtained culture supernatant was used as an enzyme solution. Thereby, an enzyme solution derived from the strain F09Δbgl3A not containing BGL3A (hereinafter, also referred to as “-BGL3A”) and an enzyme solution derived from the strain F09pyr+ containing BGL3A (hereinafter, also referred to as “+BGL3A”) were prepared.
The reaction was carried out by placing 10 g of the reaction solution (Table 5) in a 50-ml tube and shaking the tube at 90 rpm at 50° C. for 24 hours.

[7] = Generation of gentiobiose from cellobiose by culture supernatant containing BGL3A; assay type: biochemical; settings: enzyme solution, 50° C. for 24 hours
Method: as §2
The two enzyme solutions obtained in Example (5-2) were used to degrade cellobiose, which is a decomposition product of a cellulosic substrate, under conditions of containing a certain concentration of glucose, and the product was analyzed. The reaction was carried out by placing 10 g of the reaction solution (Table 6) in a 50-ml tube and shaking the tube at 90 rpm at 50° C. for 24 hours.

[8] = Reaction of GH1-2s with cellobiose, products by TLC and ion exchange chromatography; assay type: biochemical; settings: 30 μg/mL enzyme, 2% cellobiose aqueous solution, 40° C. for 1 to 60 minutes
Method: The purified GH1-2 was added to a 2% cellobiose aqueous solution at a concentration of 30 μg/mL, and a reaction solution after reaction at 40° C. for 1 to 60 minutes was used as a sample solution. The sample solution in 3 μL portions was spotted and developed on a thin layer chromatography plate (Merck) having a silica layer having a thickness of 200 μm, a size of 20×20 cm, and an average pore diameter of 60 angstroms. The composition of the developing solvent was chloroform:methanol:pure water=30:20:5 by volume ratio. An aniline phthalate method for detecting a reducing group was used for color development detection. […]
(§3) The reaction mixture obtained by using the wild-type GH1-2 was subject to ion exchange chromatography under the conditions described in Example (2-2), and the reaction product was analyzed, and observation of the hydrolysis product and the transglycosylation product was carried out over time. […]
as §3, with “Similarly, the” for “The”, “W363F mutant” for “wild-type”, “(2-2),” for “(2-2), and”, “time, and the result was compared with that observed when using the wild-type GH1-2 was observed.” for “time.”

[9] = Reaction of purified GH1-2 with high-concentration glucose, products by ion-exchange chromatography; assay type: biochemical; settings: 1.4 g/L enzyme
Method: The purified GH1-2 was added to a 40% glucose aqueous solution at a concentration of 1.4 g/L, and reaction was carried out at 40° C. for 24 hours, to thereby obtain a sample. This sample was diluted 1000-fold with ion-exchanged water, and subjected to ion-exchange chromatography, to thereby analyze the reaction product. As a result, generation of beta-linked glucose oligosaccharides such as gentiobiose by GH1-2 was confirmed (FIG. 4).
The purified GH1-2 obtained in Example (2-1) was added to a 560 g/L glucose solution at a concentration of 1.4 g/L, to thereby obtain a reaction mixture. The reaction mixture was stirred so as to be uniform, and then left to stand at a room temperature for 52 hours. Then, the reaction mixture was heated at 95° C. for 10 minutes, to thereby obtain a saccharide solution containing gentiobiose. It was confirmed by the ion-exchange chromatography mentioned above that the saccharide solution contains 35.04 g/L gentiobiose.

O=C[C@H](O)[C@@H](O)[C@H](O[C@@H]1O[C@H](CO)[C@@H](O)[C@H](O)[C@H]1O)[C@H](O)CO [cellobiose, reference compound]
complementation of the decrease in the ability for secretory production of cellulase due to deletion of the gh1-2 gene (halo) ([1]; 1 mM in CMC minimal medium): scarcely able to complement the decrease in the ability for secretory production of cellulase

gentiobiose
secretory production of cellulase (diameter and width of degradation halo) [2]: secretory production of cellulase is synergistically improved | complementation of the decrease in the ability for secretory production of cellulase due to deletion of the gh1-2 gene (halo) ([1]; 0.01 mM in CMC minimal medium): complemented the decrease in the ability for secretory production of cellulase more strongly than other beta-linked glucose oligosaccharides | complementation of the decrease in the ability for secretory production of cellulase due to deletion of the gh1-2 gene (halo) ([1]; 1 mM in CMC minimal medium): strongly complements the decrease in the ability for secretory production of cellulase | secretory production of cellulase (width of degradation halo) [3]: secretory production of cellulase is synergistically improved | efficiency of cellulase production (filter paper degradation activity, yield per carbon source) [4]: cellulase production with higher efficiency | secretory production amount of HSA [5]: greater in the case of feeding gentiobiose than in the case of feeding cellobiose

B1: BGL3A: major extracellular-secretion type beta-glucosidase of T. cellulolyticus (SEQ ID NO: 38), tested as culture supernatant of strain F09pyr+ (protein, listed as Talaromyces cellulolyticus)
chain: MYSAFLLLLASATPIVSAQSASWSAAYSKATAALSKLSQNDKIGMVTGVGWGKGPCVGNTAAPSGISFPSLCIQDSPLGVRYANPVTAFPAGTNAGMTWDRTLMNQRGAALGAESKGLGVHVQLGPVAGPLGKIAQGGRGWEGFGTDPYLSGVAMIETISGMQSSGTQACAKHYIGNEQELNRESMSSNIDDRTLHELYLWPFADAVRANVASVMCSYNQINGTFSCENEESMTGILKTELGFPGYIMSDWDAQHTTVTSANSGLDMTMPGSDYSDTPSSVLWGQNLANAISSGQVAQSRLDDMVTRILAAWYLVGQDQGFPAVAFNSWTGGQASVNVTSNHNQVARAVARDSIVLLKNTNSTLPLNKPSSIAIIGTDAQTNPSGPNACTDRGCDTGTLAMGWGSGTCQFPYLTDPLTAIKTRAASDGTTITTSISDNGSAGASVAQSAEYAIVFINSDSGEGYITVEGVAGDRNNLDPWHSGNALVQSVAAVNKKTIVVIHSVGPVILETILAQPNVVAVVWAGIPGQESGSALTDILYGSTAPSGKLTYTIAKQASDYGTAVVSGSDNYPEGLFIDYRHFDKSNIEPRYEFGYGLSYTTFGYTNLAIDITVSTGPTTGQIVPGGPSDLFESVGTVTVQVANTGSVAGSEVAQLYIGLPSSAPSSPPKQLRGFDKLSLAAGASGTATFDLTRRDLSYWDVSKQKWVVPSGAFTVYVGASSRDIRLQGTFTPGGSSTTSTITSSKTSTTISTSVTTSSSTTAKTTTTSSTTSSAGPTQTPYGQCGGQGWTGPTVCSSGWTCKVTNQWYSQCLQ
generation of gentiobiose from glucose [6]: can generate gentiobiose from glucose in a concentration-dependent manner | generation of gentiobiose from cellobiose [7]: can generate gentiobiose from cellobiose

B2: GH1-2: beta-glucosidase of T. cellulolyticus (SEQ ID NO: 23), His-tag at the C-terminus, expressed in E. coli and purified (protein, listed as Talaromyces cellulolyticus)
chain: MGSVTSTNGETPQSKLPADFVWGYATASYQIEGAYDEDGRGPSIWDTFSKTPGKVEDGTNGDVACDSYHRTHEDIAILKQYGAKLYRFSLSWPRIIPLGGRNDPINQKGIDFYSKFIDDLHAAGIEPFVTLYHWDLPDELFKRYGGPLNKDEFVADYANFARIAFQSFGHKVKHWVTFNEPWCSSVLGFNIGKHAPGRTSDRKKNPVGDGVREPWIAGHSLLVAHGTAVDIYRKEFKPTQGGEIGITLNGDWAEPWDPEDPEDIEACTRKLEFAISWFADPIYLGKYPDSVVKQIGDRLPPLTPDEVALIKGSNDFYGMNHYCANYIRHREGEADPDDTAGNLDHLFEDKFGNSIGPETNCEWLRPHPLGFRKLLKWLSDRYGYPKIYVTENGTSIKGENDLPLEELLNDEFRVQYYRDYVGAMADAATFDGVNVKKYMAWSLMDNFEWSEGYQSRFGVTYVDYKDNQKRIPKKSALVIGELFNKYISKE
modifications: C-terminal His-tag
activity on cellobiose (reaction products by TLC) [8]: has not only a hydrolysis activity but also has a transglycosylation activity | activity on glucose (generation of beta-linked glucose oligosaccharides such as gentiobiose) ([9]; 40% glucose aqueous solution, 40° C. for 24 hours): has a transglycosylation activity | gentiobiose contained in the saccharide solution after reaction ([9]; 560 g/L glucose solution, room temperature for 52 hours): 35.04 g/L
